From ChEMBL document CHEMBL5696442, “Discovery of type II inhibitors of TGFβ-activated kinase 1 (TAK1) and mitogen-activated protein kinase kinase kinase kinase 2 (MAP4K2)” (J Med Chem, 2015)

Legend:
[1] = biological target: Wee1-like protein kinase 2 (Homo sapiens) (UniProt P0C1S8); assay: Inhibition of WEE2 (unknown origin) at 1 uM by Ambit Kinomescan binding assay relative to control
[2] = biological target: T1, Serine/threonine-protein kinase TAO2 (Homo sapiens) (UniProt Q9UL54); assay: Inhibition of TAO2 Lys2 labeling site in human A-375 cells at 0.05 uM by KiNativ Profiling analysis relative to control; type: cell-based
T1 sequence (whole entry): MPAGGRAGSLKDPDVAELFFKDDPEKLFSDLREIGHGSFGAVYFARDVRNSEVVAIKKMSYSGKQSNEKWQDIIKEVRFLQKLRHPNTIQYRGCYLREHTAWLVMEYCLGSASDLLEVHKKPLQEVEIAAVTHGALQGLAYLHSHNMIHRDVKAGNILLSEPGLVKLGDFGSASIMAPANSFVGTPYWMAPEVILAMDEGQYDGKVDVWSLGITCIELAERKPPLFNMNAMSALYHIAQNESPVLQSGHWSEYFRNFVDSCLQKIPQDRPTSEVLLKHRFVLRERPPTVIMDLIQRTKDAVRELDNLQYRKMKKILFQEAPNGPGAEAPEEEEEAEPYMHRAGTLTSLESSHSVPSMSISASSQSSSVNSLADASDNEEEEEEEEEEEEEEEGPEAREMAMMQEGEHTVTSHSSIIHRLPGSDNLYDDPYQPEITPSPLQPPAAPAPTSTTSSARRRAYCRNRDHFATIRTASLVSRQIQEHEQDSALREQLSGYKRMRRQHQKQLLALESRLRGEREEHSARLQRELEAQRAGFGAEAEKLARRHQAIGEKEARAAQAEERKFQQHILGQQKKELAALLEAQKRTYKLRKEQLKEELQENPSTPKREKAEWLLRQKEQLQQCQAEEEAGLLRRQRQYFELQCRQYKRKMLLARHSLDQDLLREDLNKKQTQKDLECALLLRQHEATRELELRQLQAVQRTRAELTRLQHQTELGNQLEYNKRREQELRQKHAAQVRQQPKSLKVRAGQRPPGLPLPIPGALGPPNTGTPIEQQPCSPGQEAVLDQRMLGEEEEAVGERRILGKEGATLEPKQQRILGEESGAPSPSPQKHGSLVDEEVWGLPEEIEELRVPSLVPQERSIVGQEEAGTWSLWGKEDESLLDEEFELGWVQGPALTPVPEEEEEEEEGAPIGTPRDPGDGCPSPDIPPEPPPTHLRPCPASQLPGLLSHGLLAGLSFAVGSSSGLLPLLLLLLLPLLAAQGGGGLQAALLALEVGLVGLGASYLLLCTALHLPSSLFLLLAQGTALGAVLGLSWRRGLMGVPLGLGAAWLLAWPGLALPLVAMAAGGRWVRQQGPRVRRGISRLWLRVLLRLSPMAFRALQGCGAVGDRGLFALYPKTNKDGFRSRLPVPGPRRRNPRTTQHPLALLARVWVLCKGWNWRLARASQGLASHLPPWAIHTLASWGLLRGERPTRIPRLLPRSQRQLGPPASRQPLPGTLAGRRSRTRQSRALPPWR

[3] = biological target: T2, Serine/threonine-protein kinase STK11 (Homo sapiens) (UniProt Q15831); assay: Inhibition of LKB1 Lys2 labeling site in human A-375 cells at 5 uM by KiNativ Profiling analysis relative to control; type: cell-based
T2 sequence (whole entry): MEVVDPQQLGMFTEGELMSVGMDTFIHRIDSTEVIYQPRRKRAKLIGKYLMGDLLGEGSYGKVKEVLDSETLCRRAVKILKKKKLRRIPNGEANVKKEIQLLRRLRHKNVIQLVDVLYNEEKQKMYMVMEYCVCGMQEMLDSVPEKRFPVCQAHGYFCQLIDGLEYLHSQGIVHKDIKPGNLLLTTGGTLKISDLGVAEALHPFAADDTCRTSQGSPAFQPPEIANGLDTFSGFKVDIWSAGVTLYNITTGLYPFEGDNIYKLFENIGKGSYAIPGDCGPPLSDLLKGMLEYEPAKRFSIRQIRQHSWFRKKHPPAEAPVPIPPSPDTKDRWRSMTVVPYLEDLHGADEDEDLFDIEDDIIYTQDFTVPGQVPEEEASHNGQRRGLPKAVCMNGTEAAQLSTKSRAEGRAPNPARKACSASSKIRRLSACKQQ

[4] = biological target: eIF-2-alpha kinase GCN2 (Homo sapiens) (UniProt Q9P2K8); assay: Inhibition of GCN2 domain2 Lys2 labeling site in human A-375 cells at 0.5 uM by KiNativ Profiling analysis relative to control; type: cell-based
[5] = biological target: RAC-beta serine/threonine-protein kinase (Homo sapiens) (UniProt P31751); assay: Inhibition of AKT2 ATP Loop labeling site in human A-375 cells at 5 uM by KiNativ Profiling analysis relative to control; type: cell-based
[6] = biological target: STE20-like serine/threonine-protein kinase (Homo sapiens) (UniProt Q9H2G2); assay: Inhibition of SLK Lys1 labeling site in human A-375 cells at 0.5 uM by KiNativ Profiling analysis relative to control; type: cell-based
[7] = biological target: Serine/threonine-protein kinase MRCK gamma (Homo sapiens) (UniProt Q6DT37); assay: Inhibition of DMPK2 (unknown origin) at 1 uM by Ambit Kinomescan binding assay relative to control; values are per cent of control
[8] = biological target: Serine/threonine-protein kinase 4 (Homo sapiens) (UniProt Q13043); assay: Inhibition of MST1 Lys1 labeling site harbouring ETGQIVAIKQVPVESDLQEIIK in human A-375 cells at 5 uM by KiNativ Profiling analysis relative to control
[9] = biological target: Non-receptor tyrosine-protein kinase TYK2 (Homo sapiens) (UniProt P29597); assay: Inhibition of TYK2 JH1 catalytic domain (unknown origin) at 10 uM by Ambit Kinomescan binding assay relative to control; values are per cent of control
[10] = biological target: Tyrosine-protein kinase TXK (Homo sapiens) (UniProt P42681); assay: Inhibition of TXK (unknown origin) at 10 uM by Ambit Kinomescan binding assay relative to control; values are per cent of control
MEF = assay: Inhibition of IL-1alpha induced p105 phosphorylation level in mouse MEF cells preincubated for 1 hr followed by IL-1 alpha stimulation and measured after 30 mins by Western blot analysis; type: functional, cell-based; details: dose 0.01-10 µM
[11] = biological target: Cyclin-dependent kinase 2 (Homo sapiens) (UniProt P24941); assay: Inhibition of CDK2 (unknown origin) at 10 uM by Ambit Kinomescan binding assay relative to control
[12] = Inhibition of KHS1 Lys1 labeling site in human Huh-7 cells at 1 uM by KiNativ Profiling analysis relative to control; details: condition cancer

Chain of STE20-like serine/threonine-protein kinase (Homo sapiens) (Q9H2G2 whole entry, looked up): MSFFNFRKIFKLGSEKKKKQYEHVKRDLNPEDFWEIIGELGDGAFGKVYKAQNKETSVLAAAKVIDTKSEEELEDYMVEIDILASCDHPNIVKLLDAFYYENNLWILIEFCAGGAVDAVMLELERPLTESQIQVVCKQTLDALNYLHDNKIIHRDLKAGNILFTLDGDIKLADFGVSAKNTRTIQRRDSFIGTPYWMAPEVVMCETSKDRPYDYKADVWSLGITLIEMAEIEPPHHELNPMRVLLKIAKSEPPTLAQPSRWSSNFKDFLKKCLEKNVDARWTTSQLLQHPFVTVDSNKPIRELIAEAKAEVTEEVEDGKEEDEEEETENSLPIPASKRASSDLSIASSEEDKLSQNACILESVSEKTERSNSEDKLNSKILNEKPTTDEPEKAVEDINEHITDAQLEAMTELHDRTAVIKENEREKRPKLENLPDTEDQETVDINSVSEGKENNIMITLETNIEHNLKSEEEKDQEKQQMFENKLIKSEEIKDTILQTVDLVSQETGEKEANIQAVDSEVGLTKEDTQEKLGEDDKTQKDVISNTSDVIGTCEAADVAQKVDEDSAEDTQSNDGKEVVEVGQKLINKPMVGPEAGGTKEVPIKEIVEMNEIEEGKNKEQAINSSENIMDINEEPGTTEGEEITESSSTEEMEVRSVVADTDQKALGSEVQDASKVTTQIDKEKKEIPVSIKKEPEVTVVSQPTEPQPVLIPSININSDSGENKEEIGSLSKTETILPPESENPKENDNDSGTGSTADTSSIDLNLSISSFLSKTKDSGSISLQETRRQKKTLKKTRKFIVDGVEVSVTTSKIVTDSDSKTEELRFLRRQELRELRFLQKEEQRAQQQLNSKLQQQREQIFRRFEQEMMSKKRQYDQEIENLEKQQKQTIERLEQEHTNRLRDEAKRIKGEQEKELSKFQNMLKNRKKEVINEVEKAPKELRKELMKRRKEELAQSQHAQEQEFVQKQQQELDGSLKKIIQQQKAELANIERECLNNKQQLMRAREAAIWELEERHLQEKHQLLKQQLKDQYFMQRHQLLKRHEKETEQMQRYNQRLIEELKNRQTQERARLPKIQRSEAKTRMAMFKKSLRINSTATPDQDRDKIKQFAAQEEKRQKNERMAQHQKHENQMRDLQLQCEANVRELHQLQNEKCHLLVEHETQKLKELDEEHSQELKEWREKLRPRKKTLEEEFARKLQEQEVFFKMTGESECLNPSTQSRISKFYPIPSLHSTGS
Chain of Serine/threonine-protein kinase MRCK gamma (Homo sapiens) (Q6DT37 whole entry): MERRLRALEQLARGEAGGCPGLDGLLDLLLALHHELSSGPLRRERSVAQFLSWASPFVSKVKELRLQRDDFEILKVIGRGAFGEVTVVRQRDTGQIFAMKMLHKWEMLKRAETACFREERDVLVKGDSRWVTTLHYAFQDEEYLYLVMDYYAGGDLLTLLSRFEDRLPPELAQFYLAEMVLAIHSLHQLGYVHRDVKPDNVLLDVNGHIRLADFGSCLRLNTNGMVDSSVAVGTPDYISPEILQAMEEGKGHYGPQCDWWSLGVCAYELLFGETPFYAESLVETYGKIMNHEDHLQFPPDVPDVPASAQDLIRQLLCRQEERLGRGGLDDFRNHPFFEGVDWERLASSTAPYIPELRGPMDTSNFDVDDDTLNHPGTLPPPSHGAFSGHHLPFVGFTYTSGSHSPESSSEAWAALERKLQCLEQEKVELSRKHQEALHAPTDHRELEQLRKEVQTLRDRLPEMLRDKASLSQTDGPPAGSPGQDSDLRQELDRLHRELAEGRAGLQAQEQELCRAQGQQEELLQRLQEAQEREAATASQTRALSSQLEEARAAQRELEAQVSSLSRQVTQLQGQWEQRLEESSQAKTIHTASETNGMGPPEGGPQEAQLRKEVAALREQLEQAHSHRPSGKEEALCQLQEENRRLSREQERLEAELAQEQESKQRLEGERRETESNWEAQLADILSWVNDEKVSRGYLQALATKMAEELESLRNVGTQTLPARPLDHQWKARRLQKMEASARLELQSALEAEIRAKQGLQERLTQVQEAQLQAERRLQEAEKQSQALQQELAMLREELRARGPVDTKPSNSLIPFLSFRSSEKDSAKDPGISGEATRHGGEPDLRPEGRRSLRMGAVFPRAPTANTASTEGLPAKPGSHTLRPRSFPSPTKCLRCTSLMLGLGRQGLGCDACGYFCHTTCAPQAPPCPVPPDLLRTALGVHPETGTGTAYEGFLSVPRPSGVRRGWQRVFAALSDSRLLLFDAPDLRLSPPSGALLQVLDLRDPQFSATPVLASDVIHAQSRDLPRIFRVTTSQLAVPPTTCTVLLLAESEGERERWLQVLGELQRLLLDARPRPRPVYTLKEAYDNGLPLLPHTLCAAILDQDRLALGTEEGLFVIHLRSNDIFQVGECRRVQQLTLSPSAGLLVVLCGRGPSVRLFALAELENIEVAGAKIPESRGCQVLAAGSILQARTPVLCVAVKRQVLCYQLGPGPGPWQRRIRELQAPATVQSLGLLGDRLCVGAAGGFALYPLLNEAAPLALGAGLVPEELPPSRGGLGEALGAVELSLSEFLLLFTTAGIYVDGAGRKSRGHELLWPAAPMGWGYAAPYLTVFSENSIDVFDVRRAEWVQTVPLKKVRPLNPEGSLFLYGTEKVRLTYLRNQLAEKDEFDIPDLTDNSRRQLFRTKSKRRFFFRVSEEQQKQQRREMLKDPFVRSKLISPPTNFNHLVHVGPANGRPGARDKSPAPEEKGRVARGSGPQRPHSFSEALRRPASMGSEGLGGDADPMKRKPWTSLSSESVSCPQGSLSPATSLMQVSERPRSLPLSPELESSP
Chain of RAC-beta serine/threonine-protein kinase (Homo sapiens) (P31751 whole entry): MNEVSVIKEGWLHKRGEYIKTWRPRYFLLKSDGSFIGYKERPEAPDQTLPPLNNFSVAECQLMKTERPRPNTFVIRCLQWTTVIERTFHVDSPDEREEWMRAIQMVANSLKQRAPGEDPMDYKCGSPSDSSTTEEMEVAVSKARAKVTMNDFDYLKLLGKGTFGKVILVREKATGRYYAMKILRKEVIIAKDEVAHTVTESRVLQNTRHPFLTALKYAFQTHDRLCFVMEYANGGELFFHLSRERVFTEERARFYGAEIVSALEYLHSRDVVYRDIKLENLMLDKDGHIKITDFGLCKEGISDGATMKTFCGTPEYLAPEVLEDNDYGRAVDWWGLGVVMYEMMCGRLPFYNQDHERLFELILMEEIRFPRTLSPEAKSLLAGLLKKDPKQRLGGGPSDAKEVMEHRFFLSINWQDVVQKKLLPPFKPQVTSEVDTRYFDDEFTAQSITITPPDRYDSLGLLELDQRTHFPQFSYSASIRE
Chain of Serine/threonine-protein kinase 4 (Homo sapiens) (Q13043 whole entry, looked up, the tested form may be a part): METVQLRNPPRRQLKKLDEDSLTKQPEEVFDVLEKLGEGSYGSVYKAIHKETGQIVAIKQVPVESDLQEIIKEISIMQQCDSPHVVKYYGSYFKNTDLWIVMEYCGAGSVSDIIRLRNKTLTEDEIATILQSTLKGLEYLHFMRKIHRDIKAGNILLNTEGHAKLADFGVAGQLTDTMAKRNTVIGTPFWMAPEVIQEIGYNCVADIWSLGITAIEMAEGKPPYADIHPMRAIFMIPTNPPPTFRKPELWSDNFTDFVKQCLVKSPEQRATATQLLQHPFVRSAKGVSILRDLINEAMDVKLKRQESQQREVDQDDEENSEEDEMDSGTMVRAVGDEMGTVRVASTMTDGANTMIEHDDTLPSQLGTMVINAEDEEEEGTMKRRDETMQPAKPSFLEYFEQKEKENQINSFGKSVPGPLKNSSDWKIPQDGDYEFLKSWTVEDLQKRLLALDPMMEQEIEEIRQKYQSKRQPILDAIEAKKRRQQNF
Chain of Non-receptor tyrosine-protein kinase TYK2 (Homo sapiens) (P29597 whole entry, the tested form may be a part): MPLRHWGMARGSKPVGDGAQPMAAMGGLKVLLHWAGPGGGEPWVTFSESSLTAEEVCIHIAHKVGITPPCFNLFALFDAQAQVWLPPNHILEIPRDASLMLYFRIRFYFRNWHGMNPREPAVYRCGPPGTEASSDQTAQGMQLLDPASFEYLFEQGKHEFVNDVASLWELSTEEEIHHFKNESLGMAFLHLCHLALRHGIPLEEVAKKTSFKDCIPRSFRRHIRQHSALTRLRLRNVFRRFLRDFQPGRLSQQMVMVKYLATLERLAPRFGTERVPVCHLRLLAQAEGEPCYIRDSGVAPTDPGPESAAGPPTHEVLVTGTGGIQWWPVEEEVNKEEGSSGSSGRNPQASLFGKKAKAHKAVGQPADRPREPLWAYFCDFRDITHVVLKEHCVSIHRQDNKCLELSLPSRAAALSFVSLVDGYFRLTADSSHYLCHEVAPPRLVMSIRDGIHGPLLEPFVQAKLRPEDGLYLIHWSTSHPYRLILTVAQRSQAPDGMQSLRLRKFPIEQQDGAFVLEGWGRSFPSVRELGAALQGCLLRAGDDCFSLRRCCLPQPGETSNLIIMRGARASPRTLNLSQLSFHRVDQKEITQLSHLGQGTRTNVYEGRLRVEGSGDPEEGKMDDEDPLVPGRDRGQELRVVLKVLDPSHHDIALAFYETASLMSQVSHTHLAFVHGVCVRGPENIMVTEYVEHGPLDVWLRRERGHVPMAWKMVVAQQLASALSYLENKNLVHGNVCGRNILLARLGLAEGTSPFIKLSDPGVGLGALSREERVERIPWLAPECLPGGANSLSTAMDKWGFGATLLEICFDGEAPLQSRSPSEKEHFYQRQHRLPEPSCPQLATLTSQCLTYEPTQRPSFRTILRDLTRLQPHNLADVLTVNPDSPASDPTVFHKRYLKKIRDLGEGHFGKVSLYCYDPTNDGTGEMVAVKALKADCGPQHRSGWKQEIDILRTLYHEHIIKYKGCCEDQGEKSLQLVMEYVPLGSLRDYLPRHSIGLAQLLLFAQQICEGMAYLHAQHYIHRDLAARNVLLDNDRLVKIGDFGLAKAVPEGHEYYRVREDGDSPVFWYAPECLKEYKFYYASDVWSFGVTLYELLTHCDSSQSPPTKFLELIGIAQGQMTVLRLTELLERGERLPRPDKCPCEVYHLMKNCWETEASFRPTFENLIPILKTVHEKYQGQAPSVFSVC

**Q.** For `CCN1CCN(Cc2ccc(NC(=O)c3ccc(C)c(/C=C/c4cnc5[nH]ccc5c4OC)c3)cc2C(F)(F)F)CC1`, which inhibition [1] is on record?
**A.** Its inhibition is 74%.

**Q.** And the inhibition [2]?
**A.** Its inhibition is 21.5%.

**Q.** What about the inhibition [3] of the same compound?
**A.** Its inhibition is 28.7%.

**Q.** And the inhibition [4]?
**A.** Its inhibition is 44.6%.

**Q.** And the inhibition [5]?
**A.** Its inhibition is 13.3%.

**Q.** And the inhibition [6]?
**A.** The inhibition was 6.8%.

**Q.** What about the residual activity [7] of the same compound?
**A.** Its residual activity is 76%.

**Q.** What about the inhibition [8] of the same compound?
**A.** Its inhibition is 27.6%.

**Q.** With `CCN1CCN(Cc2ccc(NC(=O)c3ccc(C)c(Oc4ccnc5[nH]ccc45)c3)cc2C(F)(F)F)CC1` as the compound, how does the residual activity [9] read?
**A.** The residual activity was 0%.

**Q.** What about the residual activity [10] of the same compound?
**A.** Its residual activity is 12%.

**Q.** What about the inhibition (MEF) of the same compound?
**A.** Its inhibition is “Dose-Dependent Effect”.

**Q.** What about the inhibition [11] of the same compound?
**A.** Its inhibition is 11%.

**Q.** With `CNc1cc(Oc2cc(C(=O)Nc3cc(N4CCN(C)CC4)cc(C(F)(F)F)c3)ccc2C)ncn1` as the compound, how does the inhibition at 1 µM [12] read?
**A.** Its inhibition at 1 µM is -10.3%.
